Results from publication PMC4929687 (Scientific Reports, 2014).

Molecular target: T1, human kidney-type glutaminase (KGA), catalytic domain (cKGA) (Homo sapiens, UniProt O94925)
T1 sequence (O94925 221-533): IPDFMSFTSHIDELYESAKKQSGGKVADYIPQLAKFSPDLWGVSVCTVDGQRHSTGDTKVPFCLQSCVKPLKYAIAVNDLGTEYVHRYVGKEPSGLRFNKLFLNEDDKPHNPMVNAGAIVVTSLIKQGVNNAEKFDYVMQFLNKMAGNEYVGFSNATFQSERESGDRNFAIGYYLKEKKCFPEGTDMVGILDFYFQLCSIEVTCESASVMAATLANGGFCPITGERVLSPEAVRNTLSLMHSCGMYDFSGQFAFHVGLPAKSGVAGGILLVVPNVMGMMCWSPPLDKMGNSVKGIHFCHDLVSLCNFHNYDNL
Test: X-ray crystal structure at […] Å
Format: biochemical

In the case of [N-]=[N+]=CC(=O)CC[C@H](N)C(=O)O [DON, 6-diazo-5-oxo-L-norleucine], the IC50 is reported as about 1000 µM.
